# Measurements published in US8470534B2, “Methods of predicting resistance or sensitivity to therapies for cancer” (priority 2006, dated 2013).
# Columns and labels:
# [1] = tested on: MCF7, T47D, and Zr-75-1 cells; test: Immunoblot of cyclin D1 and RB phosphorylation after hormone deprivation with Tam; format: cell-based, human; conditions: wild-type cells; CDT serum in addition to Tam, 72 hours
# Method: RB-deficient cells are able to bypass estrogen ablation therapy. To determine the effect of first-line breast cancer antiestrogen therapies on RB function, cells are exposed to several therapeutically relevant conditions. Specifically, wild-type MCF7, T47D, and Zr-75-1 cells are cultured in medium containing either FBS or charcoal dextran-treated (CDT) serum in addition to Tam, so as to antagonize ER function. […] U20S and SaOS2 cells are included as controls for RB and PI 61NK4a expression levels, respectively (FIG. 4a).
# (§1) To study the effect of estrogen depletion, cells are cultured for 72 hours in phenol red-free DMEM supplemented with 10% CDT serum with addition of 10^−9 M 4-HydroxyTam or 10^−6 M ICI where indicated. Cell growth assays are performed by trypsinizing cells and counting by trypan blue exclusion every 3 days.
# Cells are harvested by trypsinization and lysed in RIPA buffer. Equal amounts of protein, as determined by Bio-Rad DC assay, are resolved by SDS-PAGE. Specific proteins are detected by standard immunoblotting procedures using the following primary antibodies: p16INK4a (F-12; 1:500 dilution), cyclin D1 (H295), PCNA (pc10), cyclin E (HE12), cyclin A (C-19), MCM7 (141.2), E2F3 (C-18), cdk4 (H-22), lamin B (M-20), p21 (C-19), p53 (Ab-6; 1:500 dilution), RB phospho ser 780 (9307S; 1:500 dilution) and anti-RB (G3-245; 1:100 dilution). […]
# MCF7 cells = test: Cell growth assay in CDT/Tam over 9 days; format: cell-based, human
# Method: To understand the impact of RB deficiency on the response to hormone deprivation therapy, cells are cultured in CDT, CDT/Tam, or in the presence of pure antiestrogen, ICI182780 (CDT/ICI). Following treatment with these modalities, cells are labeled with BrdU to determine the influence of each agent on cell-cycle progression and the corresponding influence of RB knockdown on this response (FIG. 4B). These experiments are recapitulated in the polyclonal populations of T47D and Zr-75-1 donor and siRb88 cells (FIG. 4C). […] To elucidate the long-term growth effects of these therapies, cell proliferation assays are performed over 9 days. RB-proficient and -deficient MCF7 cells are seeded at equal densities and cultured in CDT/Tam (FIG. 4D). […] Similar results are evident in the same experiments with both T47D and Zr-75-1 RB-proficient and -deficient polyclonal pools (FIG. 4E).
# as §1
structure (smiles),measurement,setting,value
"CC/C(=C(\c1ccccc1)c1ccc(OCCN(C)C)cc1)c1ccccc1 [Tam, tamoxifen]",RB phosphorylation (immunoblot),[1],RB dephosphorylation
same,cyclin D1 levels (immunoblot),[1],cyclin D1 levels decreased
same,cell proliferation over 9 days,MCF7 cells; MCF7 cells lacking RB cultured in CDT/Tam,continue to proliferate
same,cell proliferation over 9 days,MCF7 cells; control (RB-proficient) MCF7 cells cultured in CDT/Tam,did not exhibit cell proliferation
